Results: US6946588B2, “Nucleic acid encoding a modified threonine deaminase and methods of use” (Monsanto Technology LLC, priority 1996, dated 2005)

Assays:
[1] = target: BktB β-ketothiolase (Cupriavidus necator, UniProt Q0KBP1); test: Thiolysis kinetics of purified BktB β-ketothiolase; conditions: 25° C.
Protocol: To enhance further our understanding of the kinetic characteristics of BktB β-ketothiolase, a thorough kinetic analysis of the enzyme's thiolysis activity was conducted using purified protein. The assay to determine the kinetic parameters Km and Vmax for βketobutyryl-CoA (C4), β-ketovaleryl-CoA (C5), and β-ketocaproyl-CoA (C6), was performed at 25° C. by the in situ generation of the β-keto compounds from their corresponding trans-2,3-enoyl-CoAs essentially as described by Haywood et al. (1988). Utilization of variable substrate concentrations permitted the determination of the descriptive kinetic parameters of the β-ketothiolase. Kinetic rates were determined only at fixed substrate concentrations in the Haywood et al. communication.
Purified BktB protein was prepared by growing E. coli […] transformed with pMON25754 in LB broth containing ampicillin (100μg/ml) overnight at 37° C. Cells were then harvested by centrifugation, and the pellet was resuspended in 50 mM KPi and 5% glycerol, sonicated, and the sonicate centrifuged to remove cellular debris. The cell extract was desalted using a PD-10 column (Pharmacia), and proteins resolved using a Pharmacia FPLC system and MonoQ anion-exchange column (Pharmacia). Buffer A was 10 mM Tris buffer, pH 7.8, plus 1 mM DTT; buffer B was buffer A plus 1 M KCl. The gradient was 0 to 10% B in 10 min, then to 35% B in 40 min. The flow rate was 1 ml/min, and the resolved proteins were collected at the rate of 1 ml/fraction. […] The enzyme was stored in 10 mM Tris-HCl, pH 7.8, 1 mM DTT, 50% glycerol at −20° C.
The C5 and C6 enoyl-CoAs were synthesized according to Schulz (1974) and purified using semi-prep C8-reverse-phase HPLC as described above for β-ketovaleryl-CoA. βketobutyryl-CoA (acetoacetyl-CoA) was purchased from Sigma (St. Louis, Mo.). The assay mixture (1 ml final volume) contained 150 mM EPPS, pH 8.0, 50 mM MgCl2, 1.5 mM pyruvate, 0.4 mM NAD+, and a coupling enzyme cocktail of three units crotonase, five units β-hydroxyacyl-CoA dehydrogenase, and 10 units lactic dehydrogenase. The enoyl-CoA was added to this mixture and the absorbance at 304 nm was monitored until it reached a plateau (typically about 5 min). CoA was added to this mixture, followed by BktB β-ketothiolase to initiate the reaction. The decrease in absorbance at 304 nm due to the thiolysis of the β-ketoacyl-CoA was utilized as a direct measure of activity. Extinction coefficients to convert absorbance units to μmol of product were 19.5, 12.2, and 14.0 cm^−1 mM^−1 for β-ketobutyryl-CoA, β-ketovaleryl-CoA, and β-ketocaproyl-CoA, respectively. β-ketoacyl-CoA concentration was varied from […] (CoA was fixed at 200 μM), and CoA concentration was varied from 20 to 400 μM (β-ketocaproyl-CoA was fixed at 60 μM) for determining kinetic parameters for β-ketoacyl-CoA and CoA, respectively. Reaction rates were calculated in the steady-state within the first minute following initiation. All data were fitted to the normal Michaelis-Menten equation using a non-linear regression analysis.

[2] = system: A. eutrophus PhbA and BktB β-ketothiolases; test: β-Ketothiolase condensation assay with 1-14C-acetyl-CoA (PhbA, BktB); type: biochemical; conditions: 0.30 mM acetyl-CoA
Description: As noted above, A. eutrophus can produce P(3HB-co-3HV) copolymer when provided with an appropriate C5 precursor. […] One of these β-ketothiolases, designated BktB herein, was encoded on plasmid pBK6. A. eutrophus BktB was obtained from E. coli DH5α transformed with plasmid pMON25754. pMON25754 was produced from the A. eutrophus pBK6 clone (Slater et al., 1988) by deleting a 5.0 kb XhoI fragment (there is an additional XhoI site approximately 5.0 kb 5′ to the XhoI site shown in FIG. 1 of Slater et al.). The pBK6 clone was produced by Slater et al. (1988) from A. eutrophus H16, i.e., ATCC accession number 17699, which is publicly available from the American Type Culture Collection, 12301 Parklawn Drive, Rockville, Md. 20852. BktB was overexpressed from its native promoter on the high copy plasmid pMON25754 by growing the cells overnight at 37° C. to stationary phase in LB broth containing ampicillin (100 μg/ml). A. eutrophus PhbA was obtained from E. coli DH5α transformed with pMON25636 (FIG. 20) by growing the cells at 37° C. in LB broth containing ampicillin (100 μg/ml) to early log phase and then inducing with IPTG. Cells were harvested after two hours of further growth.
The activity of β-ketothiolases can be assayed in both the condensation and thiolysis directions. However, condensation activity for products that are the result of a mixed condensation of acetyl-CoA and a longer chain acyl-CoA are difficult to measure. This is due to the difficulty in distinguishing between acetoacetyl-CoA, the product of condensing two acetyl-CoA molecules, and the mixed condensation reaction product, both of which form simultaneously. To date, condensation assays have been spectrophotometrically-based, but these are valid only when there is a single acyl-CoA substrate present (i.e., acetyl-CoA) since they cannot discriminate between the products formed. The assay described below represents the first reported assay that permits complete quantitation of all condensation products regardless of the nature of starting substrates.
β-ketothiolase assays designed to measure the condensation activity with acetyl-CoA plus either propionyl-CoA or butyryl-CoA were performed using 1-^14C-labelled acetyl-CoA. Since the equilibrium for the reaction lies heavily toward the starting acyl-CoAs rather than the condensed β-ketoacyl-CoA product, the latter was “pulled” to the corresponding β-hydroxyacyl-CoA using NADH and β-ketoacyl-CoA dehydrogenase. In addition, to avoid the strong feedback inhibition of β-ketothiolase by free CoA, each assay solution contained 5,5′-dithio-bis(2-nitrobenzoic acid) (DTNB) to trap chemically the free CoA produced by the reaction.
The condensation assay mixture (0.5 ml final volume) contained 100 mM KPi, pH 7.8, 0.5 mM NADH, 0.30 mM 1-^14C-acetyl-CoA (0.15 μCi), 5 units β-ketoacyl-CoA dehydrogenase, 0.5 mM DTNB, and variable propionyl- or butyryl-CoA as indicated in Table 5. The reaction was initiated by the addition of β-ketothiolase. Following 20 minutes at 30° C., each reaction mixture was quenched by the addition of 25 μl of 10% formic acid. Thirty μl of 25% H2SO4 were added to 200 μl of quenched reaction mix; this mixture was then incubated at 70° C. for 24 hours to hydrolyze all CoA thioesters to their free acids. Sixty μl of 5 M sodium formate were added to the sample to neutralize the pH, followed by analysis of a 130 μl aliquot using C18-reverse-phase HPLC (0.5×25 cm column). Detection and quantitation were carried out by monitoring flow-through with a Radiomatic flow detector. A gradient elution was employed using aqueous 1% acetic acid (solvent A) and acetonitrile (solvent B). […]

Sequence of BktB β-ketothiolase (Q0KBP1 2-394 limits assumed): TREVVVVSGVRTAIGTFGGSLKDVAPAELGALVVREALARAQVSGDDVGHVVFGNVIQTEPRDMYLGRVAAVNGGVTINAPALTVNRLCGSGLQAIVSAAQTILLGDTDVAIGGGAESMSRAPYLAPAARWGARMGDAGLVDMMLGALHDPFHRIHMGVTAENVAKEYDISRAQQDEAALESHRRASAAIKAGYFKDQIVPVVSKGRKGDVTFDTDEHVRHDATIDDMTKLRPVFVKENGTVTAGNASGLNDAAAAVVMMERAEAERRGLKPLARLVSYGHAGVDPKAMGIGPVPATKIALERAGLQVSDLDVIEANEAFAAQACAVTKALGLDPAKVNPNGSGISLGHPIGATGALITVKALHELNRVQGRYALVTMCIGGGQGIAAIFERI

CCC(=O)CC(=O)SCCNC(=O)CCNC(=O)[C@H](O)C(C)(C)COP(=O)(O)OP(=O)(O)OC[C@H]1O[C@@H](n2cnc3c(N)ncnc32)[C@H](O)[C@@H]1OP(=O)(O)O [B-ketovaleryl-CoA]
Km ([1]; CoA fixed at 200 μM): 15 ± 1 µM
Vmax ([1]; CoA fixed at 200 μM): 236 ± 8 u/mg

CCCC(=O)CC(=O)SCCNC(=O)CCNC(=O)[C@H](O)C(C)(C)COP(=O)(O)OP(=O)(O)OC[C@H]1O[C@@H](n2cnc3c(N)ncnc32)[C@H](O)[C@@H]1OP(=O)(O)O [B-ketocaproyl-CoA]
Km ([1]; CoA fixed at 200 μM): 6 ± 0.7 µM
Vmax ([1]; CoA fixed at 200 μM): 103 ± 3 u/mg

CC(C)(COP(=O)(O)OP(=O)(O)OC[C@H]1O[C@@H](n2cnc3c(N)ncnc32)[C@H](O)[C@@H]1OP(=O)(O)O)[C@@H](O)C(=O)NCCC(=O)NCCS [CoA, coenzyme A]
Vmax ([1]; β-ketocaproyl-CoA fixed at 60 μM): 98 ± 3 u/mg

CC(=O)CC(=O)SCCNC(=O)CCNC(=O)[C@H](O)C(C)(C)COP(=O)(O)OP(=O)(O)OC[C@H]1O[C@@H](n2cnc3c(N)ncnc32)[C@H](O)[C@@H]1OP(=O)(O)O [B-ketobutyryl-CoA]
Km ([1]; CoA fixed at 200 μM): 37 ± 3 µM
Vmax ([1]; CoA fixed at 200 μM): 122 ± 5 u/mg

B1: PhbA: A. eutrophus PhbA β-ketothiolase obtained from E. coli DH5α transformed with pMON25636 (protein, UniProt P14611 1-393, looked up)
Acetyl-CoA acetyltransferase: MTDVVIVSAARTAVGKFGGSLAKIPAPELGAVVIKAALERAGVKPEQVSEVIMGQVLTAGSGQNPARQAAIKAGLPAMVPAMTINKVCGSGLKAVMLAANAIMAGDAEIVVAGGQENMSAAPHVLPGSRDGFRMGDAKLVDTMIVDGLWDVYNQYHMGITAENVAKEYGITREAQDEFAVGSQNKAEAAQKAGKFDEEIVPVLIPQRKGDPVAFKTDEFVRQGATLDSMSGLKPAFDKAGTVTAANASGLNDGAAAVVVMSAAKAKELGLTPLATIKSYANAGVDPKVMGMGPVPASKRALSRAEWTPQDLDLMEINEAFAAQALAVHQQMGWDTSKVNVNGGAIAIGHPIGASGCRILVTLLHEMKRRDAKKGLASLCIGGGMGVALAVERK
modifications: expressed in E. coli
notes: A. eutrophus PhbA β-ketothiolase obtained from E. coli DH5α transformed with pMON25636
% Turnover C4 Product ([2]; propionyl-CoA 0 mM): 16.9%
% Turnover C4 Product ([2]; propionyl-CoA 0.6 mM): 13.5%
% Turnover C5 Product ([2]; propionyl-CoA 0.6 mM): 0%
% Turnover C4 Product ([2]; propionyl-CoA 1.2 mM): 10.3%
% Turnover C5 Product ([2]; propionyl-CoA 1.2 mM): 0%
% Turnover C4 Product ([2]; propionyl-CoA 2.4 mM): 7.0%
% Turnover C5 Product ([2]; propionyl-CoA 2.4 mM): 0%
